Measurements from patent US10758619B2, “Controlled release mucoadhesive systems” (THE OHIO STATE UNIVERSITY, priority 2010, dated 2020).
Values after ≈ are worked out from the molar mass of the structure shown.

Experiments:
[1] = Fenretinide solubility in bovine serum; type: physicochemical; conditions: for time required to achieve equilibrium with bovine serum: 37° C.
Description: Excessive amount of fenretinide was added into fetal bovine serum in polypropylene tubes. The sample was placed on a mechanical circulator and incubated at 37 C avoiding light. At every 24 hours (until fenretinide reached saturation in serum), the sample was centrifuged at 8000 rpm for 10 minutes. 0.2 ml sample was drawn from the supernatant. This volume was immediately replaced using blank serum. The tubes were shook to mix the supernatant and sediment, and then re-placed on the mechanical circulator and incubated at 37 C. The fenretinide concentration in the supernatant was measured by a HPLC assay after extraction using acetonitrile.
A known quantity (0.9, 2.26, 3.97, 8.03, and 20.5 mg) of fenretinide was added to polypropylene tubes containing 15 mL fetal bovine serum. The samples were incubated at 37° C. under constant rotation using a rigged rotator and protection from light. At every 24 h till 7 days, the samples were centrifuged at 8000 rpm for 10 minutes and 200 μl of supernatant was withdrawn. Withdrawn serum sample was replaced with fresh serum sample, mixed properly, and incubated again under similar conditions. To the withdrawn sample (200 μl), 2 mL of acetonitrile was added, agitated overnight on a mechanical shaker with protection from light, passed through 0.45 μm PVDF filter units, and analyzed by HPLC.

[2] = Solubility of fenretinide in simulated saliva; type: physicochemical; conditions: pH 6.8
Description: The extent of solubility enhancement of fenretinide by numerous solubilizers (bile salts, surfactants, hydrophilic polymers, and co-solvents) was studied by determining the solubility in simulated saliva in the presence of 0.5, 1, 2, and 5% w/v solubilizers. Briefly, an excess amount of fenretinide was added into separate amber color ampoules containing 1-mL 0.5, 1, 2, and 5% w/v solutions of solubilizers (prepared using N2-purged simulated saliva) and sealed under vacuum in order remove the oxygen from the head-space. The ampoules were then placed in an incubator maintained at 37° C. and shaken at 240 RPM for 72 h (this duration was determined to be sufficient to reach the equilibrium). After 72 h, the ampoules were broken, mixture was passed through 0.45 μm PVDF filter units (Millipore, USA), diluted suitably with respective solubilizer solution, and the amount of fenretinide solubilized in simulated saliva was determined by HPLC.

[3] = cited from earlier work
[4] = system: cellular terminal differentiation and apoptosis; conditions: cited from earlier work
[5] = Water solubility of fenretinide; type: physicochemical

In the case of `CC1=C(/C=C/C(C)=C/C=C/C(C)=C/C(=O)Nc2ccc(O)cc2)C(C)(C)CCC1` [Fenretinide, 4-hydroxy(phenyl)retinamide], the “time required to achieve equilibrium with bovine serum” value ([1]; 0.9 mg fenretinide in 15 mL serum) is reported as 7 days, the “time required to achieve equilibrium with bovine serum” value ([1]; 8.03 mg fenretinide in 15 mL serum) is reported as 4 days and the “solubility of fenretinide in bovine serum” value ([1]; fetal bovine serum, 37° C. (Example 3, FIG. 10A)) is reported as 21 µg/mL. The solubility at 6 days ([1]; plasma or biological fluid, thermodynamic from solid, fetal bovine serum, 37 C, after 6 days incubation (Example 2)) was 20.9 ± 1.02 µg/mL (≈ 53.5 µM), the solubility ([1]; plasma or biological fluid, thermodynamic from solid, fetal bovine serum, 37° C. (Example 3, FIG. 10A)) was 21 ± 1 µg/mL (≈ 53.6 µM) and the “solubility in simulated saliva” value [2] was “insoluble”. For the same compound, the intrinsic aqueous solubility [3] was 0.0098 µg/mL, the “in vitro concentration inducing apoptosis” value [4] was greater than 5 µM and the “in vitro concentration inducing cellular terminal differentiation” value [4] was less than 3 µM. For the same compound, the water solubility [5] was “below HPLC detection limit”.
